According to ChEMBL document CHEMBL1201862, “PubChem BioAssay data set” (2004):
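Compound exposure: 48 hours, 5 concentrations, 96-well plates. GI50 is the concentration that inhibits growth by half.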 The source made the active and inactive calls. No stated cut-off is given here; in the data, active = GI50 up to about 1.1 µM and inactive = higher.

How the values were obtained:
Assay in all cases: DTP human tumour cell line panel, 48 h
[1] = test system: T47D
[2] = test system: SN12C
[3] = test system: UACC-62
[4] = test system: MDA-N
[5] = test system: SF-268
[6] = test system: OVCAR-5
[7] = test system: NCI-H23
[8] = test system: KM12
[9] = test system: A549
[10] = test system: CAKI-1
[11] = test system: A498
[12] = test system: 786-0
[13] = test system: EKVX
[14] = test system: RXF 393
[15] = test system: UACC-257
[16] = test system: HT-29
[17] = test system: SNB-19
[18] = test system: HCT-15
[19] = test system: SK-MEL-2
[20] = test system: MDA-MB-231
[21] = test system: ACHN
[22] = test system: MCF7
[23] = test system: IGROV-1
[24] = test system: HCC 2998
[25] = test system: HL-60
[26] = test system: NCI/ADR-RES
[27] = test system: SW-620
[28] = test system: OVCAR-4
[29] = test system: UO-31
[30] = test system: MDA-MB-435
[31] = test system: MOLT-4
[32] = test system: NCI-H522
[33] = test system: NCI-H460
[34] = test system: Malme-3M
[35] = test system: K562
[36] = test system: HOP-92
[37] = test system: SK-OV-3
[38] = test system: BT-549
[39] = test system: COLO 205
[40] = test system: PC-3
[41] = test system: RPMI-8226
[42] = test system: HOP-62
[43] = test system: SNB-75
[44] = test system: LOX IMVI
[45] = test system: SK-MEL-28
[46] = test system: NCI-H226
[47] = test system: TK-10
[48] = test system: M14
[49] = test system: U-251
[50] = test system: DU-145
[51] = test system: HCT-116
[52] = test system: SK-MEL-5
[53] = test system: SF-295
[54] = test system: OVCAR-8
[55] = test system: Hs-578T
[56] = test system: SF-539
[57] = test system: SR
[58] = test system: CCRF-CEM
[59] = test system: OVCAR-3

SMILES: CC12CCC(C1)C(C)(C)C2OC(=O)c1ccccc1C(=O)O (stereo not given)
- GI50 [1]: > 100 µM (inactive)
- GI50 [2]: > 100 µM (inactive)
- GI50 [3]: > 100 µM (inactive)
- GI50 [4]: > 100 µM (inactive)
- GI50 [5]: > 100 µM (inactive)
- GI50 [6]: > 100 µM (inactive)
- GI50 [7]: > 100 µM (inactive)
- GI50 [8]: > 100 µM (inactive)
- GI50 [9]: > 100 µM (inactive)
- GI50 [10]: > 100 µM (inactive)
- GI50 [11]: > 100 µM (inactive)
- GI50 [12]: > 100 µM (inactive)
- GI50 [13]: > 100 µM (inactive)
- GI50 [14]: > 100 µM (inactive)
- GI50 [15]: > 100 µM (inactive)
- GI50 [16]: > 100 µM (inactive)
- GI50 [17]: > 100 µM (inactive)
- GI50 [18]: > 100 µM
- GI50 [19]: > 100 µM (inactive)
- GI50 [20]: > 100 µM (inactive)
- GI50 [21]: > 100 µM (inactive)
- GI50 [22]: > 100 µM (inactive)
- GI50 [23]: > 100 µM (inactive)
- GI50 [24]: > 100 µM (inactive)
- GI50 [25]: > 100 µM (inactive)
- GI50 [26]: > 100 µM (inactive)
- GI50 [27]: > 100 µM (inactive)
- GI50 [28]: > 100 µM (inactive)
- GI50 [29]: > 100 µM (inactive)
- GI50 [30]: > 100 µM (inactive)
- GI50 [31]: > 100 µM (inactive)
- GI50 [32]: > 100 µM (inactive)
- GI50 [33]: > 100 µM (inactive)
- GI50 [34]: > 100 µM (inactive)
- GI50 [35]: > 100 µM (inactive)
- GI50 [36]: > 100 µM (inactive)
- GI50 [37]: > 100 µM (inactive)
- GI50 [38]: > 100 µM (inactive)
- GI50 [39]: > 100 µM (inactive)
- GI50 [40]: > 100 µM (inactive)
- GI50 [41]: > 100 µM (inactive)
- GI50 [42]: 34.7 µM (inactive)
- GI50 [43]: > 100 µM (inactive)
- GI50 [44]: > 100 µM (inactive)
- GI50 [45]: > 100 µM (inactive)
- GI50 [46]: > 100 µM (inactive)
- GI50 [47]: > 100 µM (inactive)
- GI50 [48]: > 100 µM (inactive)
- GI50 [49]: > 100 µM (inactive)
- GI50 [50]: > 100 µM (inactive)
- GI50 [51]: > 100 µM (inactive)
- GI50 [52]: > 100 µM (inactive)
- GI50 [53]: > 100 µM (inactive)
- GI50 [54]: > 100 µM (inactive)
- GI50 [55]: 8.97 µM (inactive)

SMILES: COc1ccc(/C=C2\CCc3cc(OC)c(OC)cc3C2=O)cc1
- GI50 [1]: > 10 µM (inactive)
- GI50 [2]: > 10 µM (inactive)
- GI50 [56]: > 10 µM (inactive)
- GI50 [3]: > 10 µM (inactive)
- GI50 [4]: > 10 µM (inactive)
- GI50 [5]: > 10 µM (inactive)
- GI50 [6]: > 10 µM (inactive)
- GI50 [57]: > 10 µM (inactive)
- GI50 [7]: > 10 µM (inactive)
- GI50 [8]: > 10 µM (inactive)
- GI50 [9]: > 10 µM (inactive)
- GI50 [10]: > 10 µM (inactive)
- GI50 [12]: > 10 µM (inactive)
- GI50 [13]: > 10 µM (inactive)
- GI50 [14]: > 10 µM (inactive)
- GI50 [15]: > 10 µM (inactive)
- GI50 [16]: > 10 µM (inactive)
- GI50 [17]: > 10 µM (inactive)
- GI50 [18]: > 10 µM
- GI50 [58]: > 10 µM (inactive)
- GI50 [19]: > 10 µM (inactive)
- GI50 [20]: > 10 µM (inactive)
- GI50 [21]: > 10 µM (inactive)
- GI50 [22]: > 10 µM (inactive)
- GI50 [23]: > 10 µM (inactive)
- GI50 [24]: > 10 µM (inactive)
- GI50 [25]: 9.25 µM (inactive)
- GI50 [26]: > 10 µM (inactive)
- GI50 [27]: > 10 µM (inactive)
- GI50 [28]: > 10 µM (inactive)
- GI50 [29]: > 10 µM (inactive)
- GI50 [30]: > 10 µM (inactive)
- GI50 [31]: > 10 µM (inactive)
- GI50 [33]: > 10 µM (inactive)
- GI50 [34]: > 10 µM (inactive)
- GI50 [35]: > 10 µM (inactive)
- GI50 [36]: > 10 µM (inactive)
- GI50 [37]: > 10 µM (inactive)
- GI50 [38]: > 10 µM (inactive)
- GI50 [39]: > 10 µM (inactive)
- GI50 [40]: > 10 µM (inactive)
- GI50 [41]: > 10 µM (inactive)
- GI50 [42]: > 10 µM (inactive)
- GI50 [43]: 5.12 µM (inactive)
- GI50 [44]: > 10 µM (inactive)
- GI50 [45]: > 10 µM (inactive)
- GI50 [46]: > 10 µM (inactive)
- GI50 [47]: > 10 µM (inactive)
- GI50 [48]: > 10 µM (inactive)
- GI50 [49]: > 10 µM (inactive)
- GI50 [50]: > 10 µM (inactive)
- GI50 [51]: > 10 µM (inactive)
- GI50 [52]: > 10 µM (inactive)
- GI50 [53]: > 10 µM (inactive)
- GI50 [54]: > 10 µM (inactive)
- GI50 [55]: > 10 µM (inactive)
- GI50 [59]: > 10 µM (inactive)

SMILES: COc1ccc([N+](=O)[O-])c2c(NCCCN(C)C)ccnc12
- GI50 [1]: 3.52 µM (inactive)
- GI50 [2]: 7.29 µM (inactive)
- GI50 [56]: 4.6 µM (inactive)
- GI50 [3]: 3.61 µM (inactive)
- GI50 [4]: 12.1 µM (inactive)
- GI50 [5]: 6.18 µM (inactive)
- GI50 [6]: 5.9 µM (inactive)
- GI50 [7]: 2.32 µM (inactive)
- GI50 [8]: 7 µM (inactive)
- GI50 [9]: 3.37 µM (inactive)
- GI50 [10]: 8.39 µM (inactive)
- GI50 [11]: 2.33 µM (inactive)
- GI50 [12]: 8.36 µM (inactive)
- GI50 [13]: 4.92 µM (inactive)
- GI50 [14]: 2.31 µM (inactive)
- GI50 [15]: 3.26 µM (inactive)
- GI50 [16]: 3.66 µM (inactive)
- GI50 [17]: 8.3 µM (inactive)
- GI50 [18]: 1.85 µM
- GI50 [58]: 15 µM (inactive)
- GI50 [19]: 2.05 µM (inactive)
- GI50 [20]: 8.3 µM (inactive)
- GI50 [21]: 2.86 µM (inactive)
- GI50 [22]: 5.01 µM (inactive)
- GI50 [23]: 1.66 µM (inactive)
- GI50 [24]: 2.84 µM (inactive)
- GI50 [25]: 5.14 µM (inactive)
- GI50 [26]: 15.8 µM (inactive)
- GI50 [27]: 4.7 µM (inactive)
- GI50 [28]: 1.51 µM (inactive)
- GI50 [29]: 4.39 µM (inactive)
- GI50 [30]: 9.1 µM (inactive)
- GI50 [31]: 1.8 µM (inactive)
- GI50 [32]: 1.46 µM (inactive)
- GI50 [33]: 2.34 µM (inactive)
- GI50 [34]: 2.43 µM (inactive)
- GI50 [35]: 1.77 µM (inactive)
- GI50 [36]: 1.78 µM (inactive)
- GI50 [37]: 11.2 µM (inactive)
- GI50 [38]: 2.21 µM (inactive)
- GI50 [39]: 2.39 µM (inactive)
- GI50 [40]: 4.32 µM (inactive)
- GI50 [41]: 1.65 µM (inactive)
- GI50 [42]: 3.66 µM (inactive)
- GI50 [43]: 1.28 µM (inactive)
- GI50 [44]: 6.71 µM (inactive)
- GI50 [45]: > 63.4 µM (inactive)
- GI50 [46]: 7.31 µM (inactive)
- GI50 [47]: 10.2 µM (inactive)
- GI50 [48]: 6.52 µM (inactive)
- GI50 [49]: 4.93 µM (inactive)
- GI50 [50]: 5.42 µM (inactive)
- GI50 [51]: 3.77 µM (inactive)
- GI50 [52]: 2.12 µM (inactive)
- GI50 [53]: 3.61 µM (inactive)
- GI50 [54]: 10.8 µM (inactive)
- GI50 [55]: 6.35 µM (inactive)
- GI50 [59]: 2.39 µM (inactive)
